Laboratory results published in ChEMBL document CHEMBL3885861, “Open TG-GATES”.

Organism: Rattus norvegicus
Test: Open TG-GATES - Regimen: Single
Format: toxicity, organism-based, Sprague-Dawley
Set-up: regimen Single, gender Male, age 6 weeks
Settings: in vivo, po, 1000 mg/kg, route gavage, dose level High; for APTT / Bas / Eos / Fbg / Hb / Ht / Lym / MCH / MCHC / MCV / Mono / Neu / PT / Plat / RBC / Ret / WBC: tissue Blood; for KIDNEY_L / KIDNEY_R / KIDNEY_TOTAL: tissue Kidney; for LIVER: tissue Liver; for ALP / ALT / AST / BUN / CRE / Ca / Cl / DBIL / GLC / IP / K / LDH / Na / PL / RALB / TBIL / TC / TG / TP / gamma-GTP: tissue Plasma

SMILES: COc1cc([C@@H]2c3cc4c(cc3[C@@H](O[C@@H]3O[C@@H]5CO[C@@H](C)O[C@H]5[C@H](O)[C@H]3O)[C@H]3COC(=O)[C@H]23)OCO4)cc(OC)c1O [ETOPOSIDE]
- TERMINAL_BW (3 h): 199.8 g
- APTT (3 h): 16.9 s
- Bas (3 h): 0%
- Eos (3 h): 1%
- Fbg (3 h): 194.6 mg/dL
- Hb (3 h): 13.4 g/dL
- Ht (3 h): 39.9%
- Lym (3 h): 75.2%
- MCH (3 h): 22.5 pg
- MCHC (3 h): 33.7%
- MCV (3 h): 66.6 fL
- Mono (3 h): 7.6%
- Neu (3 h): 16.2%
- PT (3 h): 12.1 s
- Plat (3 h): 113.8 x10_4/uL
- RBC (3 h): 599 x10_4/ul
- Ret (3 h): 9.6%
- WBC (3 h): 81.2 x10_2/uL
- KIDNEY_L (3 h): 0.9 g
- KIDNEY_R (3 h): 0.9 g
- KIDNEY_TOTAL (3 h): 1.8 g
- LIVER (3 h): 9.6 g
- ALP (3 h): 906.2 IU/L
- ALT (3 h): 35.8 IU/L
- AST (3 h): 68 IU/L
- BUN (3 h): 12.4 mg/dL
- CRE (3 h): 0.4 mg/dL
- Ca (3 h): 10.5 mg/dL
- Cl (3 h): 104 meq/L
- DBIL (3 h): 0.026 mg/dL
- GLC (3 h): 186.8 mg/dL
- IP (3 h): 9.8 mg/dL
- K (3 h): 4.5 meq/L
- LDH (3 h): 112.4 IU/L
- Na (3 h): 141 meq/L
- PL (3 h): 132 mg/dL
- RALB (3 h): 3.3 g/dL
- TBIL (3 h): 0.3 mg/dL
- TC (3 h): 71.2 mg/dL
- TG (3 h): 39.4 mg/dL
- TP (3 h): 5.2 g/dL
- gamma-GTP (3 h): 2 IU/L
- TERMINAL_BW (6 h): 200.5 g
- APTT (6 h): 16.7 s
- Bas (6 h): 0%
- Eos (6 h): 0.6%
- Fbg (6 h): 194.4 mg/dL
- Hb (6 h): 13.4 g/dL
- Ht (6 h): 39.7%
- Lym (6 h): 74.4%
- MCH (6 h): 22.1 pg
- MCHC (6 h): 33.8%
- MCV (6 h): 65.4 fL
- Mono (6 h): 10.6%
- Neu (6 h): 14.6%
- PT (6 h): 11.9 s
- Plat (6 h): 114.8 x10_4/uL
- RBC (6 h): 606.4 x10_4/ul
- Ret (6 h): 11.1%
- WBC (6 h): 76.4 x10_2/uL
- KIDNEY_L (6 h): 0.9 g
- KIDNEY_R (6 h): 0.9 g
- KIDNEY_TOTAL (6 h): 1.8 g
- LIVER (6 h): 8.9 g
- ALP (6 h): 782.6 IU/L
- ALT (6 h): 31.6 IU/L
- AST (6 h): 65.8 IU/L
- BUN (6 h): 11 mg/dL
- CRE (6 h): 0.6 mg/dL
- Ca (6 h): 10.4 mg/dL
- Cl (6 h): 104 meq/L
- DBIL (6 h): 0.006 mg/dL
- GLC (6 h): 193.6 mg/dL
- IP (6 h): 10.5 mg/dL
- K (6 h): 4.8 meq/L
- LDH (6 h): 105.4 IU/L
- Na (6 h): 140 meq/L
- PL (6 h): 140.2 mg/dL
- RALB (6 h): 3.3 g/dL
- TBIL (6 h): 0.3 mg/dL
- TC (6 h): 82.8 mg/dL
- TG (6 h): 39 mg/dL
- TP (6 h): 5.2 g/dL
- gamma-GTP (6 h): 1 IU/L
- TERMINAL_BW (9 h): 193.9 g
- APTT (9 h): 17.2 s
- Bas (9 h): 0%
- Eos (9 h): 0.6%
- Fbg (9 h): 201 mg/dL
- Hb (9 h): 13.8 g/dL
- Ht (9 h): 41.4%
- Lym (9 h): 86.4%
- MCH (9 h): 21.9 pg
- MCHC (9 h): 33.4%
- MCV (9 h): 65.7 fL
- Mono (9 h): 3.8%
- Neu (9 h): 9.2%
- PT (9 h): 11.3 s
- Plat (9 h): 117 x10_4/uL
- RBC (9 h): 630.4 x10_4/ul
- Ret (9 h): 8.4%
- WBC (9 h): 65.4 x10_2/uL
- KIDNEY_L (9 h): 0.9 g
- KIDNEY_R (9 h): 0.9 g
- KIDNEY_TOTAL (9 h): 1.8 g
- LIVER (9 h): 8.3 g
- ALP (9 h): 794 IU/L
- ALT (9 h): 29.4 IU/L
- AST (9 h): 63.4 IU/L
- BUN (9 h): 13.2 mg/dL
- CRE (9 h): 0.5 mg/dL
- Ca (9 h): 10.6 mg/dL
- Cl (9 h): 105.4 meq/L
- DBIL (9 h): 0.022 mg/dL
- GLC (9 h): 212.6 mg/dL
- IP (9 h): 10.1 mg/dL
- K (9 h): 4.7 meq/L
- LDH (9 h): 81.4 IU/L
- Na (9 h): 142.2 meq/L
- PL (9 h): 124.6 mg/dL
- RALB (9 h): 3.5 g/dL
- TBIL (9 h): 0.4 mg/dL
- TC (9 h): 67.6 mg/dL
- TG (9 h): 26.4 mg/dL
- TP (9 h): 5.4 g/dL
- gamma-GTP (9 h): 1.8 IU/L
- TERMINAL_BW (24 h): 205.7 g
- APTT (24 h): 16.4 s
- Bas (24 h): 0%
- Eos (24 h): 1%
- Fbg (24 h): 207 mg/dL
- Hb (24 h): 13.6 g/dL
- Ht (24 h): 40.4%
- Lym (24 h): 82.6%
- MCH (24 h): 21.5 pg
- MCHC (24 h): 33.6%
- MCV (24 h): 63.9 fL
- Mono (24 h): 9%
- Neu (24 h): 7.4%
- PT (24 h): 11.9 s
- Plat (24 h): 111.5 x10_4/uL
- RBC (24 h): 634 x10_4/ul
- Ret (24 h): 6.1%
- WBC (24 h): 56.3 x10_2/uL
- KIDNEY_L (24 h): 1 g
- KIDNEY_R (24 h): 1 g
- KIDNEY_TOTAL (24 h): 1.9 g
- LIVER (24 h): 8.8 g
- ALP (24 h): 979.6 IU/L
- ALT (24 h): 32 IU/L
- AST (24 h): 66.6 IU/L
- CRE (24 h): 0.5 mg/dL
- Ca (24 h): 10.9 mg/dL
- Cl (24 h): 104.8 meq/L
- DBIL (24 h): 0.01 mg/dL
- GLC (24 h): 182.8 mg/dL
- IP (24 h): 9.2 mg/dL
- K (24 h): 5 meq/L
- LDH (24 h): 103.4 IU/L
- Na (24 h): 140.2 meq/L
- PL (24 h): 136.6 mg/dL
- RALB (24 h): 3.5 g/dL
- TBIL (24 h): 0.3 mg/dL
- TC (24 h): 81 mg/dL
- TG (24 h): 47.6 mg/dL
- TP (24 h): 5.6 g/dL
- gamma-GTP (24 h): 1.6 IU/L
